In data set [1] the test system is MATCH = Matricaria chamomila (scented mayweed). Description: Postemergence herbicidal activity, greenhouse, visual injury. It is filed as in vivo. The following applies: applied alone at 140 g/ha; 20-22 d; listed as 1 Methyl Ester. As to the method:
(§1) Seeds of the desired test plant species were planted in Sun Gro MetroMix® 306 planting mixture, which typically has a pH of 6.0 to 6.8 and an organic matter content of about 30 percent, in plastic pots with a surface area of 103.2 square centimeters (cm^2). When required to ensure good germination and healthy plants, a fungicide treatment and/or other chemical or physical treatment was applied. The plants were grown for 7-36 days (d) in a greenhouse with an approximate […] photoperiod which was maintained at about 18° C. during the day and 17° C. during the night. Nutrients and water were added on a regular basis and supplemental lighting was provided with overhead metal halide 1000-Watt lamps as necessary. The plants were employed for testing when they reached the second or third true leaf stage.
(§2) Weighed amounts of esters (methyl) or salts (TEA [triethylammonium], potassium [K]) of 4-amino-3-chloro-6-(4-chloro-2-fluoro-3-methoxyphenyl)pyridine-2-carboxylic acid (Compound 1) were dissolved in a volume of 97:3 volume/volume (v/v) acetone/dimethylsulfoxide (DMSO) to obtain stock solutions. […] The concentrated stock solutions were diluted with an aqueous mixture of 1.5% v/v of Agri-dex crop oil concentrate to provide the appropriate application rates. Compound requirements are based upon a 12 mL application volume at a rate of 187 liters per hectare (L/ha). Stocks solutions of the safeners were prepared following the same procedure. Spray solutions of the safeners and experimental compound mixtures were prepared by adding the appropriate volume of both stock solutions to the appropriate amount of dilution solution to form a 12 mL spray solution with active ingredients in two-way combinations. Formulated compounds were applied to the plant material with an overhead Mandel track sprayer equipped with 8002E nozzles calibrated to deliver 187 L/ha over an application area of 0.503 square meters (m^2) at a spray height of 18 inches (43 centimeters (cm)) above average plant canopy. Control plants were sprayed in the same manner with the solvent blank.
(§3) The treated plants and control plants were placed in a greenhouse as described above and watered by sub-irrigation to prevent wash-off of the test compounds. After 20-22 d, the condition of the test plants as compared with that of the control plants was determined visually and scored on a scale of 0 to 100 percent where 0 corresponds to no injury and 100 corresponds to complete kill.
(§4) Colby's equation was used to determine the herbicidal effects expected from the mixtures (Colby, S. R., Calculation of the synergistic and antagonistic response of herbicide combinations. Weeds 1967, 15, 20-22.).
(§5) The following equation was used to calculate the expected activity of mixtures containing two active ingredients, A and B: Expected=A+B−(A×B/100)
(§6) A=observed efficacy of active ingredient A at the same concentration as used in the mixture.
(§7) B=observed efficacy of active ingredient B at the same concentration as used in the mixture.

In data set [2] the test system is GALAP = Galium aparine (cleavers). Described as above. The settings on record: applied alone at 140 g/ha; 20-22 d. In kind it is in vivo. The method, then:
as §1, §2, §3, §4, §5, §6, §7

The subject of data set [3] is KCHSC = Kochia scoparia (kochia). Described as above. It is filed as in vivo. The following applies: applied alone at 140 g/ha; 20-22 d; listed as 1 Methyl Ester. As to the method:
as §1, §2, §3, §4, §5, §6, §7

In data set [4] the test system is SASKR = Salsola iberica (Russian thistle). Described as above. It is filed as in vivo. The settings on record: applied alone at 140 g/ha; 20-22 d; listed as 1 Methyl Ester. The method, then: as §1, §2, §3, §4, §5, §6, §7
The subject of data set [5] is VIOTR = Viola tricolor (wild pansy). The data set is described as above. It is filed as in vivo. The settings on record: applied alone at 140 g/ha; 20-22 d; listed as 1 Methyl Ester. As to the method: as §1, §2, §3, §4, §5, §6, §7
The test system of data set [6] is VERPE = Veronica persica (bird's-eye speedwell). The data set is described as above. It is filed as in vivo. The following applies: applied alone at 140 g/ha; 20-22 d; listed as 1 Methyl Ester. The method, then: as §1, §2, §3, §4, §5, §6, §7
The subject of data set [7] is HORVW (winter barley). Nature of the data set: Postemergence herbicidal safening, greenhouse, visual injury. It is filed as in vivo, Hordeum vulgare. The following applies: applied alone at 140 g/ha; 20-22 d; listed as 1 Methyl Ester. As to the method:
as §1, with “stage. […]” for “stage.”
The treated plants and control plants were placed in a greenhouse as described above and watered by sub-irrigation to prevent wash-off of the test compounds. After 20-22 d, the condition of the test plants as compared with that of the control plants was determined visually and scored on a scale of 0 to 100 percent where 0 corresponds to no injury and 100 corresponds to complete kill. […]

The subject of data set [8] is HORVS = Hordeum vulgare (spring barley). The data set is described as above. It is filed as in vivo. The settings on record: 20-22 d. As to the method: as §1, §2, §3, §4, §5, §6, §7
The subject of data set [9] is TRZAW = Triticum aestivum (winter wheat). The data set is described as above. It is filed as in vivo. The following applies: applied alone at 140 g/ha; 20-22 d; listed as 1 Methyl Ester. As to the method: as §1, §2, §3, §4, §5, §6, §7
For data set [10], the system named is TRZAS = Triticum aestivum (spring wheat). The description is as above. In kind it is in vivo. The following applies: 20-22 d. As to the method:
as §1, §2, §3, §4, §5, §6, §7

Data set [11] has as its system LAMPU (purple deadnettle). Description: Postemergence herbicidal activity, greenhouse, visual injury. The settings on record: applied alone at 35 g/ha; 20-22 d. It is filed as in vivo, Lamium purpureum. As to the method: as §1, §2, §3, §4, §5, §6, §7
For data set [12], the system named is PAPRH (corn poppy). Described as above. The settings on record: applied alone at 35 g/ha; 20-22 d. It is filed as in vivo, Papaver rhoeas. As to the method: as §1, §2, §3, §4, §5, §6, §7
Setting [13] is: applied alone at 8.75 g/ha, listed as 1 Methyl Ester.
The mark [14] stands for this setting: applied alone at 35 g/ha, listed as 1 Methyl Ester.
[15] abbreviates: applied alone at 35 g/ha, listed as (I) Methyl ester.
The mark [16] stands for this setting: applied alone at 140 g/ha, listed as 1 Methyl Ester.

For the molecule `COc1c(Cl)ccc(-c2cc(N)c(Cl)c(C(=O)O)n2)c1F` [Compound 1 Methyl Ester, 4-amino-3-chloro-6-(4-chloro-2-fluoro-3-methoxyphenyl)pyridine-2-carboxylic acid], in data set [1], the “MATCH Ob (observed injury)” value was found to be 82%. Also, the “GALAP Ob (observed injury)” value in data set [2] stood at 100%. The “KCHSC Ob (observed injury)” value in [3] worked out at 100%. Moreover, the “SASKR Ob (observed injury)” value in [4] amounted to 91%. Also, the “VIOTR Ob (observed injury)” value in data set [5] came out at 67%. Also, the “VERPE Ob (observed injury)” value in data set [6] is 91%. In addition, the “HORVW Ob (observed injury)” value in data set [7] is 42%. The “HORVS Ob (observed injury)” value in [8] (setting [13]) turned out to be 22%; in [8] (setting [14]) it was 38%; in data set [8] (setting [15]), 43%; in data set [8] (setting [16]), 42%. The “TRZAW Ob (observed injury)” value in data set [9] is 32%. Also, the “TRZAS Ob (observed injury)” value in [10] (setting [13]) came out at 13%; in data set [10] (setting [14]), 43%; in data set [10] (setting [15]), 45%; in [10] (applied alone at 70 g/ha, listed as 1 Methyl Ester), 25%; in [10] (setting [16]), 37%. Also, the “LAMPU Ob (observed injury)” value in data set [11] is listed as 100%. In addition, the “PAPRH Ob (observed injury)” value in data set [12] is 97%.

The values above are taken from patent US9040458B2, “Safening composition of 6-(trisubstituded phenyl)-4-amino-2-pyridinecarboxylate herbicides and cloquintocet-mexyl for cereal crops” (Dow AgroSciences LLC, priority 2008, dated 2015).
